From PubChem BioAssay (NCI)
“And” between values parts separate entries of the source, which are not always exact repeats. Identical values can stand only once.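 Tested at 5 concentrations; 48 h exposure; 96-well plates; endpoints linearly interpolated, else capped at highest concentration. At the GI50, growth is halved. TGI is the concentration that stops growth completely.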

Columns and labels:
Assay in all cases: DTP human tumour cell line panel, 48 h
[1] = test system: HL-60(TB) leukemia
[2] = test system: RPMI-8226 leukemia
[3] = test system: A498 renal
[4] = test system: HT29 colon
[5] = test system: RXF 393 renal
[6] = test system: SK-MEL-5 melanoma
[7] = test system: MDA-MB-231 breast
[8] = test system: SN12C renal
[9] = test system: K-562 leukemia
[10] = test system: CAKI-1 renal

Row | SMILES | GI50 [1] [µM] | TGI [1] | GI50 [2] | TGI [2] | GI50 [3] | TGI [3] | GI50 [4] | TGI [4] | GI50 [5] | TGI [5] | GI50 [6] | TGI [6] | GI50 [7] | TGI [7] | GI50 [8] | TGI [8] | GI50 [9] | TGI [9] [µM] | GI50 [10] [µM] | TGI [10] [µM]
1 | CSc1nsc(S/C=C\C(=O)c2ccc(C)cc2)n1 | 11.6 | > 68.9 µM | 43 µM | > 100 µM | 0.0153 µM | 0.169 µM | 19 µM | > 57.1 µM | 15.9 µM | 31.9 µM | 0.706 µM | 6.88 µM | 11.3 µM | 27.5 µM | 18.3 µM | 35.9 µM | 6.37 µM | > 100 | 21.8 | 51.5
2 | COC(=O)c1ccc(CN2C(=O)C(Cl)=C(Nc3ccc(OC)c(Cl)c3)C2=O)cc1 | 32 | > 50 µM | > 50 µM | > 50 µM | > 50 µM | > 50 µM |  |  | 11.2 µM | 26.1 µM | 31.6 µM | > 50 µM | 7.14 µM | 26.3 µM | 9.04 µM | 33.7 µM | 4.17 µM | > 50 | 17.3 | > 50
3 | COc1ccc(/C=C\c2cc(OC)c(OC)c(OC)c2)c(NS(=O)(=O)c2ccc(Cl)cc2)c1O | 0.0331 | 0.265 µM | 0.207 µM | 20.5 µM | 0.0229 µM | 0.422 µM | 2.76 µM | 11.9 µM | 0.0355 µM | 10.7 µM | 0.0511 µM | 0.332 µM | 0.206 µM | 21.4 µM | 0.708 µM | 46.5 µM | 0.0323 µM | 20.2 | 0.0542 | 28.7
4 | COC(=O)C(=O)C(C(=O)C(N)=O)c1nc2ccc(C(=O)c3ccccc3)cc2[nH]c1=O (stereo not given) |  | > 100 µM |  | > 100 µM |  | > 100 µM |  | > 100 µM |  | > 100 µM |  | > 100 µM |  | > 100 µM |  | > 100 µM |  | > 100 |  | > 100
5 | Cc1cnc(Nc2ccc(OCCN3CCCC3)cc2)nc1Nc1cccc(S(=O)(=O)NC(C)(C)C)c1 | 0.516 | 0.6 µM and 2.16 µM | 1.23 µM and 1.09 µM | 6.51 µM and > 6.61 µM | 0.144 µM and 0.385 µM | 0.869 µM and 1.57 µM | 0.0973 µM and 0.564 µM | 2.28 µM and 5.12 µM | 0.0955 µM and 0.518 µM | 0.385 µM and 1.78 µM | 1.73 µM and 2.1 µM | 5.38 µM and > 5.38 µM | 0.214 µM and 1.33 µM | 11.7 µM and > 10 µM | 0.128 µM and 0.98 µM | 9.51 µM and > 9.64 µM | 0.15 µM and 0.676 µM | > 33.6 | 1.11 | 
6 | Clc1ccc2c(c1)C(N1CCNCC1)=Nc1ccccc1O2 | 1.95 | 3.86 µM | 1.96 µM | 4.93 µM | 3.1 µM | 5.46 µM | 1.72 µM | 4.19 µM | 1.22 µM | 2.77 µM | 1.39 µM | 2.69 µM | 1.79 µM | 4.02 µM | 2.87 µM | 13.6 µM |  |  | 2.2 | 7.83
